Laboratory results reported in PMC7262913, “Substrate recognition by a bifunctional GH30‐7 xylanase B from Talaromyces cellulolyticus” (FEBS Open Bio, 2020).

Target: T1, TcXyn30B (Talaromyces pinophilus, UniProt A0A510NXC4)
T1 construct: gene TCE0_018f06110; no His tag; vector residues AYVEF at N-terminus (numbered 18-22); secreted from Pichia pastoris GS115, N-glycosylated, 62182 Da; one molecule per asymmetric unit
T1 sequence (A0A510NXC4 23-474): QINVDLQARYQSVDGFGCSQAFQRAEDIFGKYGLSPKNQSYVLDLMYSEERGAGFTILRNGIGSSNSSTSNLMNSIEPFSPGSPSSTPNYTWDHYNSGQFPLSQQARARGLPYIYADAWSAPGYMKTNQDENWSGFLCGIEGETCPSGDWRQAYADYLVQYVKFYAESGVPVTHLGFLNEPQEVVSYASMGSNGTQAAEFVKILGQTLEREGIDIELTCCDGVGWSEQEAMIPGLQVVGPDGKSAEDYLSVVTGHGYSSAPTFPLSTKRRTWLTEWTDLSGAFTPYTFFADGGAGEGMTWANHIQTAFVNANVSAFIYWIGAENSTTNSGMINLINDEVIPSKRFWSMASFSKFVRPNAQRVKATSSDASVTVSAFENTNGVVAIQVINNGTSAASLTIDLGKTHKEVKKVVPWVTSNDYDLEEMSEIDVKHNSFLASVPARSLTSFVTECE
Experiment: X-ray crystallography (co-crystal, […] Å)
Type: binding
Conditions: co-crystallised with aldouronic acid mixture (Megazyme); pH 7.3, MgCl2; subsites -1, -2a and -2b of active site

CO[C@H]1[C@H](O)[C@@H](O)[C@@H](O[C@H]2[C@H](O[C@@H]3COC(O)[C@H](O)[C@H]3O)OC[C@@H](O)[C@@H]2O)O[C@@H]1C(=O)O (stereo partly drawn) [U^4m2X, 2^2‐(4‐O‐methyl‐α‐D‐glucuronyl)‐xylobiose]
X-ray crystallography (co-crystal, 1.65 Å): A clear density map for U^4m2X is observed in the active cleft
